{"source": "patent US20150164874A1", "about": "“PIRFENIDONE AND ANTI-FIBROTIC THERAPY IN SELECTED PATIENTS” (INTERMUNE, INC., priority 2011, published 2015)", "molecules": {"B1": {"name": "Actimmune: a different drug, interferon gamma-lb, inert with respect to effect on efficacy outcomes in IPF (protein, UniProt P01579 24-161, looked up)", "Interferon gamma": "QDPYVKEAENLKKYFNAGHSDVADNGTLFLGILKNWKEESDRKIMQSQIVSFYFKLFKNFKDDQSIQKSVETIKEDMNVKFFNSNKKKRDDFEKLTNYSVTDLNVQRKAIHELIQVMAELSPAAKTGKRKRSQMLFRG"}}, "key": {"[1]": {"system": "IPF patients with mild to moderate impairment in lung function", "test": "Phase 3 trials Study 1 and Study 2 of pirfenidone vs placebo in IPF patients, retrospective re-analysis (ITT vs novel selection criteria)", "format": "in vivo, human", "details": "for 6MWT change from baseline, Relative Δ / % DLco change from baseline, Relative Δ / % FVC ≧10% decline, Relative Δ / Progression-free survival, time to event HR / SpO2 During 6MWT change from baseline, Relative Δ / Survival, time to event HR / UCSD SOBQ (dyspnea) change from baseline, Relative Δ / Worsening IPF, time to event HR: Study 1 and Study 2 pooled, pirfenidone vs placebo; for Interaction with Treatment: Group with Greater Pirfenidone Effect: multivariate model of FVC decline at 72 weeks", "text": "Two multinational, randomized, double-blind, placebo-controlled Phase 3 trials, referred to herein as Study 1 and Study 2, were designed and performed to evaluate the safety and efficacy of pirfenidone in IPF patients with mild to moderate impairment in lung function. Both trials enrolled patients in North America, Europe and Australia with roughly 75% of the total 779 patients enrolled in North America.\nStudy 1 enrolled a total of 344 patients. Patients were randomized 1:1 to receive a total daily dose of 2403 mg pirfenidone, or placebo. Study 2 enrolled a total of 435 patients, and patients were randomized 2:2:1 to receive a total daily dose of 2403 mg pirfenidone, or placebo, or a total daily dose of 1197 mg pirfenidone, respectively. The total daily dose of pirfenidone was administered in three divided doses, three times per day.\nIf the surgical lung biopsy or HRCT scans were ambiguous, the slides or HRCT images were evaluated by an adjudicator for a second opinion.\nExclusion criteria included: FEV1/FVC<0.7 after bronchodilator administration, bronchodilator response, RV>120%, history of significant environmental exposure known to cause pulmonary fibrosis, and diagnosis of connective tissue disease or other known explanation of interstitial lung disease (ILD).\nEnrollment of both trials was completed in less than 13 months following randomization of the first patient into the program in late April 2006. Ninety-seven percent (97%) of all patients in the two studies who were living and had not received a lung transplant, completed their Week 72 study visit.\nThe primary endpoint of both trials was change in percent predicted Forced Vital Capacity (FVC) after 72 weeks of treatment evaluated with a nonparametric rank ANCOVA analysis. The pre-specified secondary endpoints monitored during the studies included: (a) Time to worsening of IPF, defined as time to acute IPF exacerbation, IPF-related death, lung transplant or respiratory hospitalization, whichever comes first; (b) Progression-free survival defined as time to the first occurrence of either of the following (as compared to the patient's baseline): (1) 10% absolute decline in percent predicted FVC, or (2) 15% absolute decline in percent predicted Hb-corrected DL(CO), or (3) death (in the case of FVC or DL(CO), the decline must be confirmed at two consecutive visits at least 6 weeks apart); (c) Categorical assessment of absolute change from Baseline to Week 72 in percent predicted FVC; (d) Change from Baseline to Week 72 in dyspnea measured by the University of California at San Diego Shortness-of-Breath Questionnaire (UCSD SOBQ); (e) Change from Baseline to Week 72 in the percent predicted Hb-corrected DL(CO); (f) Change from Baseline to Week 72 in the worst oxygen saturation by pulse oximetry (SpO2) measurement observed during the Six-Minute Walk Test; (g) Change from Baseline to Week 72 in distance walked in the Six-Minute Walk Test (6MWT).\nAfter the studies were completed, a retrospective multivariate model of data identified predictors of greater FVC decline at 72 weeks and variables that have a statistical interaction with pirfenidone treatment (i.e. the magnitude of the pirfenidone treatment effect is different at different levels of these variables).\nData from Study 1 and Study 2 were re-analyzed, selecting patients according to the following novel criteria instead of the original Intention To Treat (IIT) criteria:\n(c) Time since IPF diagnosis >0.5 years and <48 months\nMean change in FVC in pirfenidone-treated vs. placebo-treated groups from Study 1 and Study 2, for the original patient population selected using the ITT criteria, is shown in FIG. 2A. When the patient population is instead selected using the novel criteria above, the mean change in FVC in pirfenidone-treated vs. placebo-treated groups for the patient is shown in FIG. 2B. Patients in both pirfenidone-treated and placebo-treated groups experienced a decline in mean % FVC from baseline. […]"}, "[2]": {"system": "IPF patients with mild to moderate impairment in lung function", "test": "Phase 3 study of Actimmune in 826 IPF patients, retrospective analysis of FVC progression", "format": "in vivo, human", "details": "Phase 3 study 2003-2007", "text": "FIGS. 1A-1D depicts a analysis of FVC progression from a clinical trial involving a different drug, interferon gamma-lb, which is inert with respect to effect on efficacy outcomes, in 826 patients with IPF, when the patients are segregated according to % FVC (FIG. 1A), % DLco (FIG. 1B), time since IPF diagnosis (FIG. 1C) and FEV1/FVC ratio (FIG. 1D).\nIn a prior trial involving 826 patients, data regarding progression of FVC was collected as part of a randomized, double-blind, placebo-controlled Phase 3 study conducted from 2003-2007 that was designed to evaluate the safety and efficacy of Actimmune(R) in IPF patients with mild to moderate impairment in lung function."}, "[3]": {"details": "Study 1 and Study 2, novel criteria, week 72"}, "[4]": {"details": "Study 1 and Study 2, original ITT criteria, week 48"}, "[5]": {"details": "Study 1 and Study 2, original ITT criteria, week 72"}}}
{"molecule": "Cc1ccc(=O)n(-c2ccccc2)c1", "note": "[pirfenidone, 5-methyl-1-phenyl-2-(1H)-pyridone]", "values": [{"measurement": "6MWT change from baseline, Relative Δ", "setting": "[1]; Novel criteria, week 48", "result": 64.2, "unit": "%"}, {"measurement": "% DLco change from baseline, Relative Δ", "setting": "[1]; Novel criteria, week 48", "result": 36.9, "unit": "%"}, {"measurement": "% FVC ≧10% decline, Relative Δ", "setting": "[1]; Novel criteria, week 48", "result": 60.4, "unit": "%"}, {"measurement": "Progression-free survival, time to event HR", "setting": "[1]; Novel criteria, week 48", "result": 0.31}, {"measurement": "SpO2 During 6MWT change from baseline, Relative Δ", "setting": "[1]; Novel criteria, week 48", "result": 62.3, "unit": "%"}, {"measurement": "Survival, time to event HR", "setting": "[1]; Novel criteria, week 48", "result": 0.16}, {"measurement": "UCSD SOBQ (dyspnea) change from baseline, Relative Δ", "setting": "[1]; Novel criteria, week 48", "result": "−46.5", "unit": "%"}, {"measurement": "Worsening IPF, time to event HR", "setting": "[1]; Novel criteria, week 48", "result": 0.75}, {"measurement": "6MWT change from baseline, Relative Δ", "setting": "[1]; Pooled ITT, week 48", "result": 41, "unit": "%"}, {"measurement": "% DLco change from baseline, Relative Δ", "setting": "[1]; Pooled ITT, week 48", "result": 16, "unit": "%"}, {"measurement": "% FVC ≧10% decline, Relative Δ", "setting": "[1]; Pooled ITT, week 48", "result": 39, "unit": "%"}, {"measurement": "Progression-free survival, time to event HR", "setting": "[1]; Pooled ITT, week 48", "result": 0.53}, {"measurement": "SpO2 During 6MWT change from baseline, Relative Δ", "setting": "[1]; Pooled ITT, week 48", "result": 21, "unit": "%"}, {"measurement": "Survival, time to event HR", "setting": "[1]; Pooled ITT, week 48", "result": 0.42}, {"measurement": "UCSD SOBQ (dyspnea) change from baseline, Relative Δ", "setting": "[1]; Pooled ITT, week 48", "result": "−29", "unit": "%"}, {"measurement": "Worsening IPF, time to event HR", "setting": "[1]; Pooled ITT, week 48", "result": 0.80}, {"measurement": "absolute difference in mean change from baseline % FVC between pirfenidone-treated and placebo-treated groups", "setting": "[1]; Study 1 and Study 2, novel criteria (% FVC 50%-90%, FEV1/FVC >0.80, time since diagnosis >0.5 years and <48 months), week 48", "result": 6.1, "unit": "%"}, {"measurement": "relative difference in mean change from baseline % FVC between pirfenidone-treated and placebo-treated groups", "setting": "[1]; Study 1 and Study 2, novel criteria, week 48", "result": 63.3, "unit": "%"}, {"measurement": "absolute difference in mean change from baseline % FVC between pirfenidone-treated and placebo-treated groups", "setting": "[1]; [3]", "result": 7.9, "unit": "%"}, {"measurement": "relative difference in mean change from baseline % FVC between pirfenidone-treated and placebo-treated groups", "setting": "[1]; [3]", "result": 57.0, "unit": "%"}, {"measurement": "absolute difference in mean change from baseline % FVC between pirfenidone-treated and placebo-treated groups", "setting": "[1]; [4]", "result": 3.3, "unit": "%"}, {"measurement": "relative difference in mean change from baseline % FVC between pirfenidone-treated and placebo-treated groups", "setting": "[1]; [4]", "result": 41.6, "unit": "%"}, {"measurement": "absolute difference in mean change from baseline % FVC between pirfenidone-treated and placebo-treated groups", "setting": "[1]; [5]", "result": 2.5, "unit": "%"}, {"measurement": "relative difference in mean change from baseline % FVC between pirfenidone-treated and placebo-treated groups", "setting": "[1]; [5]", "result": 22.8, "unit": "%"}, {"measurement": "Interaction with Treatment: Group with Greater Pirfenidone Effect", "setting": "[1]; variable % FVC (90%), P-value 0.096", "result": "FVC <90%"}, {"measurement": "Interaction with Treatment: Group with Greater Pirfenidone Effect", "setting": "[1]; variable Time since Diagnosis of IPF (0.5 yrs), P-value 0.043", "result": "Time >0.5 years"}]}
{"molecule": "B1", "values": [{"measurement": "effect on FVC progression / efficacy outcomes", "setting": "[2]", "result": "does not have an effect on these outcomes"}]}
